Laboratory results from US20240018120A1, “MAGL INHIBITORS” (H. LUNDBECK A/S, priority 2020, published 2024).

Assays:
MAGL [1] = biological target: T1, MAGL (Homo sapiens, UniProt Q99685); test: In vitro competitive substrate hydrolysis enzyme activity assay (pNPA), HEK293 cell lysates; assay type: biochemical; parameters: expressed in transfected cells; host or cells: HEK293; settings: HEK293 lysate
T1 sequence (Q99685 1-303): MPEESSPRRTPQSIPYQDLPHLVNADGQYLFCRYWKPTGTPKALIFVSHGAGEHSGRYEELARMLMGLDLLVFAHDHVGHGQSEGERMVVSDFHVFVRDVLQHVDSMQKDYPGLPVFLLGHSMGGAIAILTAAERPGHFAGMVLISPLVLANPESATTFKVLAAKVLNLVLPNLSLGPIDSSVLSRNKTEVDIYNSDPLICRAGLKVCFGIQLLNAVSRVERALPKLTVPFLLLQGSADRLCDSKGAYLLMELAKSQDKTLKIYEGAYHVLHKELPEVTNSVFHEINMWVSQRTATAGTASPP
Experimental: HEK293 cell lysates expressing recombinant human MAGL enzyme and 4-nitrophenyl acetate (pNPA) substrate were diluted separately in 50 mM HEPES (pH 7.0) containing 200 mM KCl and 1 mM EDTA. Lysates (50 μL, ˜1.2 μg total protein) were preincubated with varying concentrations of inhibitors at 25° C. After 30 min, 2×pNPA substrate (50 μL, 2.5 mM) was added and the rate of substrate turnover was monitored by measuring the increase in absorbance at wavelength 405 nm for 20 minutes at 25° C. using a Biotek Neo2 plate reader. The mean velocity was converted to percent enzyme activity following background subtraction and normalization to DMSO controls. IC50 values were determined by fitting percent enzyme activities to a non-linear regression, 4-parameter, sigmoidal dose response function in Prism GraphPad.

MAGL [2] = biological target: T1, MAGL; test: In vitro competitive activity-based protein profiling, PC3 human cell membrane proteomes; assay type: biochemical; parameters: endogenous in cells; host or cells: PC3 human cells (membrane proteome); settings: human PC3 membrane proteome; for inhibition at 1 µM: read-out: MAGL % inh. 1 μM (human PC3)
Experimental: PC3 human cell membrane proteomes (50 μL, 2.0 mg/mL total protein concentration) were preincubated with varying concentrations of inhibitors at 37° C. After 30 min, the ABPP probe JW912-Bodipy (1.0 μL, 50 μM in DMSO) was added and the mixture was incubated for 30 min at room temperature. Reactions were quenched with SDS loading buffer (15 μL-4×) and run on SDS-PAGE. Following gel imaging, serine hydrolase activity was determined by measuring fluorescent intensity of gel bands corresponding to MAGL using ImageJ 1.43u software. Intensities were converted to percent enzyme activity by normalizing to DMSO controls. IC50 values were determined by fitting percent enzyme activities to a non-linear regression, 4-parameter, sigmoidal dose response function in Prism GraphPad.

## CN(C(=O)[C@@H]1CC12CCN(C(=O)OC(C(F)(F)F)C(F)(F)F)CC2)c1cnccn1 (single isomer, unassigned) [Example 11]
MAGL [1]
  IC50: 0.0993 µM
MAGL [2]
  inhibition at 1 µM: 100%
  IC50: 0.032 µM

## CN(C(=O)C1CC12CCN(C(=O)OC(C(F)(F)F)C(F)(F)F)CC2)c1ccccn1 (single isomer, unassigned) [Example 45, 1,1,1,3,3,3-hexafluoropropan-2-yl (R or S)-1-(methyl(pyridin-2-yl)carbamoyl)-6-azaspiro[2.5]octane-6-carboxylate]
MAGL [1]
  IC50: 0.06 µM
MAGL [2]
  inhibition at 1 µM: 100%
  IC50: 0.014 µM

## O=C(Nc1cnc(C(F)(F)F)nc1)C1CC12CCN(C(=O)OC(C(F)(F)F)C(F)(F)F)CC2 (single isomer, unassigned) [Example 99, 1,1,1,3,3,3-hexafluoropropan-2-yl (R or S)-1-((2-(trifluoromethyl)pyrimidin-5-yl)carbamoyl)-6-azaspiro[2.5]octane-6-carboxylate]
MAGL [1]
  IC50: 0.00552 µM
MAGL [2]
  IC50: 0.0097 µM

## O=C(OC(C(F)(F)F)C(F)(F)F)N1CCC2(CC1)CC2C(=O)N1CCc2cnc(C(F)(F)F)nc2C1 (single isomer, unassigned) [Example 58, 1,1,1,3,3,3-hexafluoropropan-2-yl (R or S)-1-(2-(trifluoromethyl)-5,6,7,8-tetrahydropyrido[3,4-d]pyrimidine-7-carbonyl)-6-azaspiro[2.5]octane-6-carboxylate]
MAGL [1]
  IC50: 0.138 µM
MAGL [2]
  IC50: 0.049 µM

## O=C(Nc1ccccn1)C1CC12CCN(C(=O)OC(C(F)(F)F)C(F)(F)F)CC2 (single isomer, unassigned) [Example 48, 1,1,1,3,3,3-hexafluoropropan-2-yl (R or S)-1-(pyridin-2-ylcarbamoyl)-6-azaspiro[2.5]octane-6-carboxylate]
MAGL [1]
  IC50: 0.139 µM
MAGL [2]
  inhibition at 1 µM: 100%

## O=C(OC(C(F)(F)F)C(F)(F)F)N1CCC2(CC1)CC2C(=O)N1CCn2c(nnc2C2CC2)C1 (racemic) [Example 185, 1,1,1,3,3,3-hexafluoropropan-2-yl (+)1-(3-cyclopropyl-5,6,7,8-tetrahydro-[1,2,4]triazolo[4,3-a]pyrazine-7-carbonyl)-6-azaspiro[2.5]octane-6-carboxylate]
MAGL [1]
  IC50: 0.862 µM
MAGL [2]
  inhibition at 1 µM: 90%
  IC50: 0.4 µM

## O=C(Nc1cccnn1)[C@@H]1CC12CCN(C(=O)OC(C(F)(F)F)C(F)(F)F)CC2 [Example 5, 1,1,1,3,3,3-Hexafluoropropan-2-yl (R)-1-(pyridazin-3-ylcarbamoyl)-6-azaspiro[2.5]octane-6-carboxylate]
MAGL [1]
  IC50: 0.553 µM
MAGL [2]
  inhibition at 1 µM: 100%
  IC50: 0.18 µM

## O=C(Nc1cncc(Cl)c1)C1CC12CCN(C(=O)OC(C(F)(F)F)C(F)(F)F)CC2 (single isomer, unassigned) [Example 66, 1,1,1,3,3,3-hexafluoropropan-2-yl (R or S)-1-((5-chloropyridin-3-yl)carbamoyl)-6-azaspiro[2.5]octane-6-carboxylate]
MAGL [1]
  IC50: 0.00102 µM
MAGL [2]
  inhibition at 1 µM: 100%
  IC50: 0.0042 µM

## O=C(NC(=O)C1CC12CCN(C(=O)OC(C(F)(F)F)C(F)(F)F)CC2)c1ccccc1 (single isomer, unassigned) [Example 94, 1,1,1,3,3,3-hexafluoropropan-2-yl (R or S)-1-(benzoylcarbamoyl)-6-azaspiro[2.5]octane-6-carboxylate]
MAGL [1]
  IC50: 0.00323 µM
MAGL [2]
  IC50: 0.0051 µM

## Cc1ccc(NC(=O)C2CC23CCN(C(=O)OC(C(F)(F)F)C(F)(F)F)CC3)cn1 (single isomer, unassigned) [Example 81, 1,1,1,3,3,3-hexafluoropropan-2-yl (R or S)-1-((6-methylpyridin-3-yl)carbamoyl)-6-azaspiro[2.5]octane-6-carboxylate]
MAGL [1]
  IC50: 0.000864 µM
MAGL [2]
  inhibition at 1 µM: 100%
  IC50: 0.00087 µM

## O=C(Nc1ccc(C(F)(F)F)nc1)C1CC12CCN(C(=O)OC(C(F)(F)F)C(F)(F)F)CC2 (single isomer, unassigned) [Example 79, 1,1,1,3,3,3-hexafluoropropan-2-yl (R or S)-1-((6-(trifluoromethyl)pyridin-3-yl)carbamoyl)-6-azaspiro[2.5]octane-6-carboxylate]
MAGL [1]
  IC50: 0.851 µM

## O=C(OC(C(F)(F)F)C(F)(F)F)N1CCC2(CC1)CC2C(=O)N1CCc2cncnc2C1 (racemic) [Example 187, 1,1,1,3,3,3-hexafluoropropan-2-yl (+)1-(5,6,7,8-tetrahydropyrido[3,4-d]pyrimidine-7-carbonyl)-6-azaspiro[2.5]octane-6-carboxylate]
MAGL [1]
  IC50: 0.143 µM
MAGL [2]
  inhibition at 1 µM: 100%
  IC50: 0.11 µM

## O=C(Nc1cnccn1)C1CC12CCN(C(=O)OC(C(F)(F)F)C(F)(F)F)CC2 (single isomer, unassigned) [Example 55, 1,1,1,3,3,3-hexafluoropropan-2-yl (R or S)-1-(pyrazin-2-ylcarbamoyl)-6-azaspiro[2.5]octane-6-carboxylate]
MAGL [1]
  IC50: 0.028 µM

## Cc1ccc(NC(=O)C2CC23CCN(C(=O)OC(C(F)(F)F)C(F)(F)F)CC3)cn1 (single isomer, unassigned) [Example 82, 1,1,1,3,3,3-hexafluoropropan-2-yl (R or S)-1-((6-methylpyridin-3-yl)carbamoyl)-6-azaspiro[2.5]octane-6-carboxylate]
MAGL [1]
  IC50: 0.118 µM

## Cc1ncccc1NC(=O)C1CC12CCN(C(=O)OC(C(F)(F)F)C(F)(F)F)CC2 (single isomer, unassigned) [Example 69, 1,1,1,3,3,3-hexafluoropropan-2-yl (R or S)-1-((2-methylpyridin-3-yl)carbamoyl)-6-azaspiro[2.5]octane-6-carboxylate]
MAGL [1]
  IC50: 0.0136 µM

## CN(C(=O)C1CC12CCN(C(=O)OC(C(F)(F)F)C(F)(F)F)CC2)c1ccccn1 (single isomer, unassigned) [Example 46, 1,1,1,3,3,3-hexafluoropropan-2-yl (R or S)-1-(methyl(pyridin-2-yl)carbamoyl)-6-azaspiro[2.5]octane-6-carboxylate]
MAGL [1]
  IC50: 0.133 µM

## O=C(OC(C(F)(F)F)C(F)(F)F)N1CCC2(CC1)CC2C(=O)N1CCn2cc(C(F)(F)F)nc2C1 (single isomer, unassigned) [Example 52, 1,1,1,3,3,3-hexafluoropropan-2-yl (R or S)-1-(2-(trifluoromethyl)-5,6,7,8-tetrahydroimidazo[1,2-a]pyrazine-7-carbonyl)-6-azaspiro[2.5]octane-6-carboxylate]
MAGL [1]
  IC50: 0.155 µM

## O=C(OC(C(F)(F)F)C(F)(F)F)N1CCC2(CC1)CC2C(=O)N1CCc2nc(C3CC3)ncc2C1 (single isomer, unassigned) [Example 64, 1,1,1,3,3,3-hexafluoropropan-2-yl (R or S)-1-(2-cyclopropyl-5,6,7,8-tetrahydropyrido[4,3-d]pyrimidine-6-carbonyl)-6-azaspiro[2.5]octane-6-carboxylate]
MAGL [1]
  IC50: 0.103 µM

## O=C(OC(C(F)(F)F)C(F)(F)F)N1CCC2(CC1)CC2C(=O)N1CCc2ncncc2C1 (single isomer, unassigned) [Example 61, 1,1,1,3,3,3-hexafluoropropan-2-yl (R or S)-1-(5,6,7,8-tetrahydropyrido[4,3-d]pyrimidine-6-carbonyl)-6-azaspiro[2.5]octane-6-carboxylate]
MAGL [1]
  IC50: 0.684 µM

## O=C(Nc1cncc(Cl)c1)C1CC12CCN(C(=O)OC(C(F)(F)F)C(F)(F)F)CC2 (single isomer, unassigned) [Example 67, 1,1,1,3,3,3-hexafluoropropan-2-yl (R or S)-1-((5-chloropyridin-3-yl)carbamoyl)-6-azaspiro[2.5]octane-6-carboxylate]
MAGL [1]
  IC50: 0.0485 µM

## O=C(Nc1cnc(C(F)(F)F)nc1)C1CC12CCN(C(=O)OC(C(F)(F)F)C(F)(F)F)CC2 (single isomer, unassigned) [Example 100, 1,1,1,3,3,3-hexafluoropropan-2-yl (R or S)-1-((2-(trifluoromethyl)pyrimidin-5-yl)carbamoyl)-6-azaspiro[2.5]octane-6-carboxylate]
MAGL [1]
  IC50: 0.736 µM

## O=C(Nc1cccc(C(F)(F)F)n1)C1CC12CCN(C(=O)OC(C(F)(F)F)C(F)(F)F)CC2 (single isomer, unassigned) [Example 73, 1,1,1,3,3,3-hexafluoropropan-2-yl (R or S)-1-((6-(trifluoromethyl)pyridin-2-yl)carbamoyl)-6-azaspiro[2.5]octane-6-carboxylate]
MAGL [1]
  IC50: 0.0003 µM
